Laboratory results: patent US20080318931A1, “Treatment of Disorders and Diseases of the Colon” (priority 2004, published 2008)
Entries after “also recorded” stand apart in the source; their conditions may differ.

Tests used:
[1] = system: ConA-induced mouse splenocytes; assay: Con-A-induced mouse splenocyte proliferation/viability, alamar blue; assay type: cell-based; conditions: 48 hr
Procedure: Mouse splenocytes were isolated from C57b1 healthy female mice. Cells (10,000/well) were tested under basal and ConA stimulation. Cells were treated with vehicle, dexamethasone or antidepressants (2.5-10 μM). Viability was assessed 48 hr later using alamar blue staining. (Reagents were manufactured by Wildflower, Santa Fe, N. Mex., USA.) Alamar blue assay was performed as in Nociari et al (1998).
(§1) Effect of paroxetine, (SSRI) and clomipramine (TCA) as compared to dexamethasone on Con-A-induced splenocyte proliferation (alamar blue method), and splenocyte-induced secretion of TH1 cytokines TNF-α, IL2 and INFγ, 1×10^6 cells/well, was measured 48 hours after exposure to drugs (2.5-10 μM).
In particular, mouse splenocytes were isolated from C57BL healthy female mice. Cells (10,000/well) were then exposed to Con-A (5 μM) and treated with either the vehicle, with dexamethasone or with a drug (2.5-10 μM).
Cell viability was assessed 48 hr later using Alamar blue staining. The results are presented in FIG. 4, where each point is the graph represents the mean of 4 determinations. […]. The IC50 determined for the antidepressant drugs was in the range of 2.5-5.5 μM.
Cells were treated with vehicle, or the antidepressants (2.5-20 μM). Viability was assessed 48 hours later using alamar blue staining. (Each point is the mean+/−SEM of 4 determinations).

[2] = system: TH1 cytokines TNF-α, IL2 and INFγ; assay: TH1 cytokine secretion (TNF-α, IL2, INFγ) from Con-A-induced splenocytes, ELISA; assay type: cell-based, mouse; conditions: 2.5-10 μM, 48 hours, 1×10^6 cells/well
Procedure: as §1
Cytokines were determined in the supernatant of the splenocyte specimens using an ELISA kit and protocol (Reagents by Cytolab). […] The pattern observed resembles that of dexamethasone.

[3] = system: splenocytes derived from treated mice; assay: ConA/basal proliferation ratio of splenocytes from mice treated in vivo for 7 days; design: species or system mouse; conditions: paroxetine 7.5, clomipramine 15 mg/kg x3/week i.p., Con A 5 μM in vitro
Procedure: Paroxetine or clomipramine were administered at 7.5 and 15 mg/kg x3/week i.p, respectively. Splenocytes were derived from treated animals.
Each group represents the mean of a pool of 5 animals.

human lymphocytes (PBMC) = assay: PHA-induced human lymphocyte proliferation, alamar blue; assay type: cell-based; conditions: PHA 2.5 μg/ml, 48 hours
Procedure: Human blood mononuclear cells (PBMC) were isolated from whole blood of 3 healthy volunteers using Ficoll-Paque gradient (Amersham Sweden). Lymphocyte proliferation was induced by exposure of 1×10^6 cells/well to phytohemagglutinin (PHA) (2.5 μg/ml). Cells were exposed to PHA and treated with vehicle or with paroxetine (2.5-10.0 μM). Cell viability was assessed 48 hours post exposure to paroxetine (2.5-10.0 μM) using Alamar blue reagent (Wildflower, Santa Fe, N. Mex., USA) according to Nociari et al (1998).

Cox-2 = Cox-2 expression in human PHA activated lymphocytes, Western blot; assay type: cell-based; conditions: 5 μM, PHA 15 μM
Procedure: Total protein lysates from human lymphocyte culture were prepared by agitation with lysis buffer (20 mM Tris pH 7.5, 150 mM NaCl, 1 mM EDTA, 1% Nonidet P-40, 0.5% sodium deoxycholate, and 2 mM Na2VO4) for 1 h at 4° C. The proteins were cleared by centrifugation at 14,000×g for 20 min at 4° C. Protein concentration was determined using BCA kit (Pierce, Ill., USA). For Western blot analysis, 30 μg-protein from each sample were loaded in 7.5% SDS-PAGE. Electroblotted proteins were detected using specific anti COX-2 polyclonal antibody (Cayman chemical company, Michigan, USA) or an ti-Stat3 monoclonal antibody (Transduction Laboratories Lexington UK). Bound antibodies were visualized using chemiluminescence reaction.

[4] = system: Con-A activated splenocytes; conditions: 5 μM
Procedure: LPS (manufactured by Sigma St. Louis Mo., USA, cat no L2880) was administered at 100 μg/mouse×2, on day 7 and day 14).

## Fc1ccc([C@@H]2CCNC[C@H]2COc2ccc3c(c2)OCO3)cc1 [paroxetine]
[1]; 2.5-10 μM, alamar blue
  ConA (mitogen)-induced splenocyte proliferation: dose dependent decrease; also recorded: dose-dependent decrease
[1]; Con-A 5 μM, drug 2.5-10 μM
  cell viability compared to dexamethasone: decreased cell viability to the same extent as compared to dexamethasone
[2]
  lymphocyte-induced pro-inflammatory cytokine secretion: decrease
[3]
  capacity to respond to Con-A (ratio ConA/basal) vs vehicle treated mice: not
Human lymphocytes (PBMC)
  IC50: 5 to 10 µM
Cox-2
  PHA-induced increase in Cox-2 expression: antagonized
[4]; LPS mice + sertraline 5 mg/kg×3/week two weeks
  response of splenocytes from LPS mice treated in vivo with sertraline: more responsive
[4]; LPS-treated mice
  response of splenocytes from LPS mice: in a manner similar to the naive animals
